Laboratory results as given in US11390617B2, “Methods of treating non-Hodgkin lymphoma using 2-(2,6-dioxopiperidin-3-yl)-4-((2-fluoro-4-((3-morpholinoazetidin-1-yl)methyl)benzyl)amino)isoindoline-1,3-dione” (Celgene Corporation, priority 2019, dated 2022).

What was measured:
Experiment in all cases: NHL cell line viability/apoptosis 384-well flow cytometry assay
Type in all cases: cell-based
HT = HT (DLBCL), 120 hours
Experimental: (§1) The following exemplary anti-proliferative assay uses exemplary non-Hodgkin lymphoma (NIL) cell lines (including diffuse large B-cell lymphoma (DLBCL), follicular lymphoma (FL), and mantle cell lymphoma (MCL)) (Table 5). The in vitro growth inhibitory activity of Compound 1 described herein was evaluated using a 384-well flow cytometry assay.
(§2) The cell lines in Table 5 were plated in 384-well flat bottom plates and assessed with increasing concentrations of compound ranging from 0.00015 to 10 μM or dimethyl sulfoxide (DMSO) control. The final concentration of DMSO was 0.1% (v/v). Following the addition of Compound 1 or DMSO and incubation for 120 hours, cell number and cell death were analyzed by flow cytometry (Attune®, Thermo Fisher) using Annexin V and the live-cell impermeant DNA dye, DRAQ7. Phosphatidylserine translocates from the inner layer to the outer layer of the cell membrane early in apoptosis and Annexin V binds to the exposed phosphatidylserine found on the surface of an apoptotic cell. The vital dye DRAQ7 is excluded by intact live cells and only stains cells that have died as a result of apoptosis or necrosis.
(§3) Flow cytometry data analysis was then performed using the Flow Jo_v10 software to determine the number of viable cells (Annexin V and DRAQ7 double negative staining cells) and percentage of apoptotic cells (Annexin V positive cells) for each condition. The live cell count for every concentration was normalized to the DMSO control (considered as 100%) to calculate the percentage of viable cells remaining after treatment and graphed using GraphPad Prism 7.03. The IC50 (50% inhibitory concentration) and Emax (maximum efficacy achieved) values were then calculated by performing nonlinear regression curve fitting using log(inhibitor) vs. normalized response—variable slope analysis on GraphPad Prism 7.03. Area under the curve (AUC) was calculated by performing area under curve analysis on GraphPad Prism 7.03. Similarly, for apoptosis analysis, the percentage of apoptosis combining both “early” (Annexin V positive and DRAQ7 negative) and “late” apoptosis (Annexin V and DRAQ7 positive) cell gates relative to DMSO was graphed using GraphPad Prism 7.03. The AUC, EC50 (concentration of Compound 1 that produces half-maximal apoptosis response) and Ymax (maximal percentage of apoptosis achieved) values from apoptosis curves were calculated by performing area under curve analysis and nonlinear regression curve fitting using log(agonist) vs. normalized response—Variable slope analysis on GraphPad Prism 7.03.
(§4) In Table 6, dose-response proliferation curves for the panel of NHL cell lines and non-linear curve-fit regression were used to determine IC50, AUC, and Emax for % viable cells (Emax for viability varies between 100 at low doses and 0 at high doses, which corresponds to inhibition of all viable cells), and dose-response apoptosis curves were used to determine the EC50, AUC, and Ymax for % apoptosis (Ymax for apoptosis varies from 0 at low doses and 100 at higher doses which corresponds to death of all cells). Tumor cells were exposed to serial dilutions (0.00015 to 10 μM) of Compound 1 or dimethyl sulfoxide (DMSO) control for 5 days. Viability and apoptosis for all cell lines was determined by Annexin V/[…] flow cytometry.

KARPAS-1106P = KARPAS-1106P (DLBCL), 120 hours
Experimental: as §1, §2, §3, §4

NU-DUL-1 = NU-DUL-1 (DLBCL), 120 hours
Experimental: as §1, §2, §3, §4

OCI-LY1 = OCI-LY1 (DLBCL), 120 hours
Experimental: as §1, §2, §3, §4

RIVA = RIVA (DLBCL), 120 hours
Experimental: as §1, §2, §3, §4

RL = RL (FL), 120 hours
Experimental: as §1, §2, §3, §4

ROS-50 = ROS-50 (DLBCL), 120 hours
Experimental: as §1, §2, §3, §4

SU-DHL-10 = SU-DHL-10 (DLBCL), 120 hours
Experimental: as §1, §2, §3, §4

SU-DHL-16 = SU-DHL-16 (DLBCL), 120 hours
Experimental: as §1, §2, §3, §4

SU-DHL-8 = SU-DHL-8 (DLBCL), 120 hours
Experimental: as §1, §2, §3, §4

U-2973 = conditions: U-2973, 120 hours
Experimental: as §1, §2, §3, §4

WILL-1 = WILL-1 (DLBCL), 120 hours
Experimental: as §1, §2, §3, §4

[1] = Homo sapiens, read-out: IC50 (% Viable Cells)
[2] = read-out: IC50 (% Viable Cells)

`O=C1CC[C@H](N2C(=O)c3cccc(NCc4ccc(CN5CC(N6CCOCC6)C5)cc4F)c3C2=O)C(=O)N1` [Compound 1, (S)-2-(2,6-dioxopiperidin-3-yl)-4-((2-fluoro-4-((3-morpholinoazetidin-1-yl)methyl)benzyl)amino)isoindoline-1,3-dione] was tested, and the “AUC (% Viable Cells)” value (HT) was 396.7, the “AUC (Apoptosis)” value (HT) was 225.3 and the “Emax (% Viable Cells)” value (HT) was 30.39%. The “Ymax (Apoptosis)” value (HT) was 25.16%, the EC50 (HT; Homo sapiens) was 66.2 nM and the IC50 (HT; [1]) was 319 nM. For the same molecule, the EC50 (KARPAS-1106P; Homo sapiens) was 91.8 nM, the IC50 (KARPAS-1106P; [1]) was 17.5 nM and the “AUC (% Viable Cells)” value (KARPAS-1106P) was 22.22. For the same molecule, the “AUC (Apoptosis)” value (KARPAS-1106P) was 885.2, the “Emax (% Viable Cells)” value (KARPAS-1106P) was 0.1698% and the “Ymax (Apoptosis)” value (KARPAS-1106P) was 97.08%. The EC50 (NU-DUL-1; Homo sapiens) was 63 nM, the IC50 (NU-DUL-1; [1]) was 35.3 nM and the “AUC (% Viable Cells)” value (NU-DUL-1) was 22.12. For the same molecule, the “AUC (Apoptosis)” value (NU-DUL-1) was 962.8, the “Emax (% Viable Cells)” value (NU-DUL-1) was 0.0228% and the “Ymax (Apoptosis)” value (NU-DUL-1) was 99.84%. For the same molecule, the EC50 (OCI-LY1; Homo sapiens) was 33.4 nM, the IC50 (OCI-LY1; [1]) was 6 nM and the “AUC (% Viable Cells)” value (OCI-LY1) was 22.77. The “AUC (Apoptosis)” value (OCI-LY1) was 852.3, the “Emax (% Viable Cells)” value (OCI-LY1) was 1.037% and the “Ymax (Apoptosis)” value (OCI-LY1) was 90.09%. For the same molecule, the “AUC (% Viable Cells)” value (RIVA) was 452.6, the “AUC (Apoptosis)” value (RIVA) was 242.8 and the EC50 (RIVA) was 17.7 nM. The “Emax (% Viable Cells)” value (RIVA) was 36.65%, the “Ymax (Apoptosis)” value (RIVA) was 27.92% and the IC50 (RIVA; [2]) was 114 nM. The EC50 (RL; Homo sapiens) was 157 nM, the IC50 (RL; [1]) was 8.76 nM and the “AUC (% Viable Cells)” value (RL) was 234.8. The “AUC (Apoptosis)” value (RL) was 115.9, the “Emax (% Viable Cells)” value (RL) was 21.55% and the “Ymax (Apoptosis)” value (RL) was 13.93%. The “AUC (% Viable Cells)” value (ROS-50) was 762.1, the “AUC (Apoptosis)” value (ROS-50) was 87.92 and the EC50 (ROS-50) was 335 nM. The “Emax (% Viable Cells)” value (ROS-50) was 65.57%, the “Ymax (Apoptosis)” value (ROS-50) was 10.9% and the IC50 (ROS-50; [2]) was no less than 10000 nM. For the same molecule, the EC50 (SU-DHL-10; Homo sapiens, SU-DHL10) was 39.4 nM, the IC50 (SU-DHL-10; Homo sapiens, SU-DHL10, read-out: IC50 (% Viable Cells)) was 6.1 nM and the “AUC (% Viable Cells)” value (SU-DHL-10) was 10.36. The “AUC (Apoptosis)” value (SU-DHL-10) was 903, the “Emax (% Viable Cells)” value (SU-DHL-10) was 0.6716% and the “Ymax (Apoptosis)” value (SU-DHL-10) was 92.27%. For the same molecule, the EC50 (SU-DHL-16; Homo sapiens) was 662 nM, the IC50 (SU-DHL-16; [1]) was 154 nM and the “AUC (% Viable Cells)” value (SU-DHL-16) was 149.7. The “AUC (Apoptosis)” value (SU-DHL-16) was 492.6, the “Emax (% Viable Cells)” value (SU-DHL-16) was 7.137% and the “Ymax (Apoptosis)” value (SU-DHL-16) was 60.79%. For the same molecule, the EC50 (SU-DHL-8; Homo sapiens) was 602 nM, the IC50 (SU-DHL-8; [1]) was 486 nM and the “AUC (% Viable Cells)” value (SU-DHL-8) was 119.5. The “AUC (Apoptosis)” value (SU-DHL-8) was 363.2, the “Emax (% Viable Cells)” value (SU-DHL-8) was 2.081% and the “Ymax (Apoptosis)” value (SU-DHL-8) was 85.44%. The EC50 (U-2973; Homo sapiens) was 2160 nM, the IC50 (U-2973; [1]) was 6780 nM and the “AUC (% Viable Cells)” value (U-2973) was 853.4. For the same molecule, the “AUC (Apoptosis)” value (U-2973) was 391.9, the “Emax (% Viable Cells)” value (U-2973) was 19.45% and the “Ymax (Apoptosis)” value (U-2973) was 60.8%. For the same molecule, the “AUC (% Viable Cells)” value (WILL-1) was 233.7, the “AUC (Apoptosis)” value (WILL-1) was 549.4 and the EC50 (WILL-1) was 2520 nM. For the same molecule, the “Emax (% Viable Cells)” value (WILL-1) was 4.216%, the “Ymax (Apoptosis)” value (WILL-1) was 79.51% and the IC50 (WILL-1; [2]) was 817 nM.
